# Test system: human CRHR1
# Experiment: CRH-induced luciferase reporter blocking assay, CHO-CRE-hCRHR1 cells
# Format: cell-based
# Conditions: CHO-CRE-hCRHR1 Clone 11, data not shown
# Procedure: To create CHO-CRE-hCRHR1, -hCRHR2, -mCRHR1, and -mCRHR2 reporter cell lines, pcDNA3.1-hCRHR1, -hCRHR2, -mCRHR1, and -mCRHR2 were introduced into CHO-CRE cells established above by electroporation as described above. Selection antibiotics hygromycin at 500 μg/ml and G418 at 1,000 μg/ml were employed. Individual established stable cell lines were characterized by both CRH and forskolin stimulation.
# Activated GPCR proteins increase production of the intracellular cAMP.
# Blocking CRHR1 by small molecules or neutralization of CRH peptide can reduce luciferase expression if the CRH-CRHR1 system works in CHO-CRE-hCRHR1 cells.
# 50 μl of 4× serially diluted antibodies was added (8 points, 1/4 diluted by growth medium) to plates containing CHO-CRE-hCRHR1 cells, and 50 μl of 4×CRH (4× is 2 nM, final is 0.5 nM) was added. Similarly, 4×CRH (4× is 0.4 nM, final is 0.1 nM) was added to CHO-CRE-hCRHR2 cells and CHO-CRE-mCRHR1 cells, and 4×CRH (4× is 20 nM, final is 5 nM) was added to CHO-CRE-mCRHR2 cells. Next, plates were incubated 4-6 hours at 37° C. in a CO2 incubator. 60 μl of culture medium was removed, to which was added 60 μl of Bio-Glo luciferase, followed by incubation for 10 min at RT. Plates were read in a luciferase plate reader (EnVision, PerkinElmer).
smiles,measurement,value
"CCCCN(CC)c1nc(C)nc2c1c(C)c(C)n2-c1c(C)cc(C)cc1C [Antalarmin, reference compound]",CRH-mediated luciferase expression,blocked

# Reference: US20260042834A1, “ANTI-CORTICOTROPIN-RELEASING HORMONE ANTIBODIES AND POLYCYSTIC OVARY SYNDROME” (HBM ALPHA THERAPEUTICS, INC., priority 2022, published 2026)
